The values that follow come from US20240269139A1, “COMPOUNDS FOR TARGETED PROTEIN DEGRADATION OF KINASES” (DANA-FARBER CANCER INSTITUTE, INC., priority 2020, published 2024).

Values joined by “and” are separate entries in the source; they are usually repeats but may differ in a detail not shown here. Equal entries are not always repeated. Where two headings read alike, the source gives them in different places.

Assay type in all cases: cell-based
Assay [1] addresses protein kinases (human kinome) (Homo sapiens, UniProt O14874). Particulars: BCKDK (O14874).
Assay [2] concerns the target T1, protein kinases (human kinome) (Homo sapiens, UniProt Q16854).
T1 sequence (Q16854 40-277): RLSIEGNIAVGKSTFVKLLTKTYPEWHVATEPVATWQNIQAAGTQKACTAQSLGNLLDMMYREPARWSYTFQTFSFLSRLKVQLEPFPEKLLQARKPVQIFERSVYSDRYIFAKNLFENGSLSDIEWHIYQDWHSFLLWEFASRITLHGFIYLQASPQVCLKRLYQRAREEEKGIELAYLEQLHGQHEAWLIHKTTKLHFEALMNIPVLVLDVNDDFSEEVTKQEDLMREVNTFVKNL
To be noted: DGUOK (Q16854).

Assay [3] concerns the target T2, protein kinases (human kinome) (Homo sapiens, UniProt Q9UBE8).
T2 sequence (Q9UBE8 1-527): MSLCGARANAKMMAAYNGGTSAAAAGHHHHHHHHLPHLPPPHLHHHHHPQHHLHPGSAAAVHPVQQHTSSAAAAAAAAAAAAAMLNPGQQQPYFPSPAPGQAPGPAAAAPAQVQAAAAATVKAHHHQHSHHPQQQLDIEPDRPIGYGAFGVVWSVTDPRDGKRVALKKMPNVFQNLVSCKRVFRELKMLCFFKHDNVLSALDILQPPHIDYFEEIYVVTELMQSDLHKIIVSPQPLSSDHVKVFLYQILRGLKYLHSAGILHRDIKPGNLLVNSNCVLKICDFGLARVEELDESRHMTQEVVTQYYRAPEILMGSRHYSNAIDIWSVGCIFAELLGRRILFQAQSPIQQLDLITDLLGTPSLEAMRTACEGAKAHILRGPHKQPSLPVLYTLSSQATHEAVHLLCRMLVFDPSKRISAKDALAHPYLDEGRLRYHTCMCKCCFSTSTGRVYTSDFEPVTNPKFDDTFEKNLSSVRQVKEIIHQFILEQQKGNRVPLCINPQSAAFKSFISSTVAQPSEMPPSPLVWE

The target in assay [4] is T3, protein kinases (human kinome) (Homo sapiens, UniProt Q13546).
T3 sequence (Q13546 1-671): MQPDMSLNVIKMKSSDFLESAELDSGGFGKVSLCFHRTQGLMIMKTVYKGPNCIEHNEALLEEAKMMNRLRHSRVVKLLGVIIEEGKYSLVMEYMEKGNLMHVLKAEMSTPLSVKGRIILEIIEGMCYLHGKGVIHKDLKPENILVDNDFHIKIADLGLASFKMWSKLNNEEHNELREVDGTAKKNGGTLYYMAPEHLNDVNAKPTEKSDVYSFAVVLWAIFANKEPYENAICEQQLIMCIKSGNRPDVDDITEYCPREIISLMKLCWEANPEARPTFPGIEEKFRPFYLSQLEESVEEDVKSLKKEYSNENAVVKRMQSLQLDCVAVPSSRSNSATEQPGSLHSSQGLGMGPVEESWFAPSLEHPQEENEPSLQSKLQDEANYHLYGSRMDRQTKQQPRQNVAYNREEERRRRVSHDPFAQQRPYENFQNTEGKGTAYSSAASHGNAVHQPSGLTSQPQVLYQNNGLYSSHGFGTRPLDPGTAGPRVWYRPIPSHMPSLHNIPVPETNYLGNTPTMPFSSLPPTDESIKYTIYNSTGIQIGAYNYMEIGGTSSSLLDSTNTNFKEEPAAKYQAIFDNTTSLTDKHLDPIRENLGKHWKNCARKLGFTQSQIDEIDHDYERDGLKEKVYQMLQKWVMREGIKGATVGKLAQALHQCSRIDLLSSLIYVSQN

Assay [5] deals with protein kinases (human kinome) (Homo sapiens, UniProt Q05397).
The target of assay [6] is protein kinases (human kinome) (Homo sapiens, UniProt O96013). To be noted: PAK4 O96013-1.
Setting [7] is: Accession Q05397, experiment wp105, direction down.

Sequence of protein kinases (human kinome) (Homo sapiens, UniProt O96013) (O96013 whole entry): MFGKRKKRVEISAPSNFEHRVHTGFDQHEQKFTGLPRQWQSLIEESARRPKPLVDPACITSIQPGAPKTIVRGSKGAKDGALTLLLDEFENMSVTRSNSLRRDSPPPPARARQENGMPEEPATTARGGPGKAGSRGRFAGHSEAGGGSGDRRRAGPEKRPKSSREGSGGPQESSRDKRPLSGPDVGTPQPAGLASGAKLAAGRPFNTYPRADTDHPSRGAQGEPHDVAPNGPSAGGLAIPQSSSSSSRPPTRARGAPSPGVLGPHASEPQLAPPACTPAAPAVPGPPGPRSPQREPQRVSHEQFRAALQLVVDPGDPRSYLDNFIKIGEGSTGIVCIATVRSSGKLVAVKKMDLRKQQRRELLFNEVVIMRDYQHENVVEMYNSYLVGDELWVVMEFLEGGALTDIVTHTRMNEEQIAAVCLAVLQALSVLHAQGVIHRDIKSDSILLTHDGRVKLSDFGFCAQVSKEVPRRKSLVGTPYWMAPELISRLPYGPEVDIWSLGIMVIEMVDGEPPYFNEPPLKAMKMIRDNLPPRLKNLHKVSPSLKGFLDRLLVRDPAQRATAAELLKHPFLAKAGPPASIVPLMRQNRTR
Sequence of protein kinases (human kinome) (Homo sapiens, UniProt Q05397) (Q05397 whole entry): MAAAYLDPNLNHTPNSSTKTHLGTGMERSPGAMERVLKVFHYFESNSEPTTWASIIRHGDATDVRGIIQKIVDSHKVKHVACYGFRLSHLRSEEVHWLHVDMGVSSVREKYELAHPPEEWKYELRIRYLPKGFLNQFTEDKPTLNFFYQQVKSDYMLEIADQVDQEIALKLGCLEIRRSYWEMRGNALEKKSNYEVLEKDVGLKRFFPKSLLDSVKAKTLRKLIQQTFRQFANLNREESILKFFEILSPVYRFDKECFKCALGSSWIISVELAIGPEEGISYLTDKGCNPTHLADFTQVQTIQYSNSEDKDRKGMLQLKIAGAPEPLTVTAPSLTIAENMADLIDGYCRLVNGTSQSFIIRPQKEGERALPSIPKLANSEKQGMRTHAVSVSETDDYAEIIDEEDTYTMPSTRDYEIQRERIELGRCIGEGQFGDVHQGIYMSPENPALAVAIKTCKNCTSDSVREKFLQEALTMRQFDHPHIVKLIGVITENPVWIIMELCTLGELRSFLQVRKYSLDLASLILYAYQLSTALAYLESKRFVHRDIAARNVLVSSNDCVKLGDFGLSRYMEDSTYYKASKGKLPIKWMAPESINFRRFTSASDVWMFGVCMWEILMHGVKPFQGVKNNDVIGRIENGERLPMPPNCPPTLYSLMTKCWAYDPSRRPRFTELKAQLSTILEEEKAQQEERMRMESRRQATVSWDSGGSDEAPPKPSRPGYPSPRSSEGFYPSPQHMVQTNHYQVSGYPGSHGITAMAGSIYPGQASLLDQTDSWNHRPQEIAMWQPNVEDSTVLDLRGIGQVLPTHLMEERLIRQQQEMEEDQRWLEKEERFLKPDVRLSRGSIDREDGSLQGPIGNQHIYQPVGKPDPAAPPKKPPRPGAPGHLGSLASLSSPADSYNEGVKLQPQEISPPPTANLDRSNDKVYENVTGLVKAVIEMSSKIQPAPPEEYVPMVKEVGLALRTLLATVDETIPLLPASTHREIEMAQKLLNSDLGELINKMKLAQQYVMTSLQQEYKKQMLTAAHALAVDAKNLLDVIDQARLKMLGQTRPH

For `CC(C)(C)c1nc(-c2cccc(NS(=O)(=O)c3c(F)cccc3F)c2F)c(-c2ccnc(NCCOCCNC(=O)CCOCCOCCNc3cccc4c3CN(C3CCC(=O)NC3=O)C4=O)n2)s1` (stereo not shown) [DD.03.107], the logFC in assay [1] (experiment wp147, 4 uM) is −1.113; in assay [1] (experiment wp147, 4 uM, direction down) it was −1.113; in assay [2] (experiment wp147, 1 uM), −0.5245; in assay [2] (experiment wp147, 4 uM) it was −0.9678.
In the case of `CC(C)S(=O)(=O)c1ccccc1Nc1nc(Nc2ccc(N3CCN(CCOCCOCCNC(=O)CNc4cccc5c4C(=O)N(C4CCC(=O)NC4=O)C5=O)CC3)cc2)ncc1Cl` (stereo not shown) [TL12.186], the logFC in assay [3] (NLK (Q9UBE8), experiment wp137, direction down) is reported as −0.5154; in assay [3] (NLK Q9UBE8, experiment wp137) it was −0.5154.
For `Cc1ccc(NC(=O)c2cccc(C(F)(F)F)c2)cc1N1Cc2cnc(Nc3ccc(N4CCN(CCCCC(=O)N[C@H](C(=O)N5C[C@H](O)C[C@H]5C(=O)N[C@@H](C)c5ccc(-c6scnc6C)cc5)C(C)(C)C)CC4)nc3)nc2N(C)C1=O` [DB1113], the “logFC RIPK1 (Q13546)” value in assay [4] (experiment wp168) is on record as −1.99. In addition, the logFC is −0.8556 in assay [3] (NLK (Q9UBE8), experiment wp168, direction down) and −0.8556 in assay [3] (NLK Q9UBE8, experiment wp168).
`Cc1cc(Nc2ncc(Br)c(Nc3cccc(F)c3C(N)=O)n2)ccc1S(=O)(=O)NCCOCCOCCOCCOCCNc1cccc2c1C(=O)N(C1CCC(=O)NC1=O)C2=O` (stereo not shown) [TMX.02.174]: in assay [5] (PTK2 Q05397, experiment wp146), the logFC was −0.8198 and the “logFC PTK2” value is given as −0.8198.
Consider `Cc1ccc(C(=O)Nc2ccc(CN3CCN(CCOCCOCCNC(=O)CNc4cccc5c4C(=O)N(C4CCC(=O)NC4=O)C5=O)CC3)c(C(F)(F)F)c2)cc1C#Cc1cnc2cccnn12` (stereo not shown) [TL13.150], for which the “logFC RIPK1 (Q13546)” value in assay [4] (experiment wp081) is given as −0.667.
As for `Cc1ncsc1-c1ccc([C@H](C)NC(=O)[C@@H]2C[C@@H](O)CN2C(=O)[C@@H](NC(=O)CCOCCOCCN2CCN(c3ccc(Nc4ncc(Cl)c(Nc5ccccc5S(=O)(=O)C(C)C)n4)cc3)CC2)C(C)(C)C)cc1` [FMF.06.098.1], in assay [5] (PTK2 Q05397, experiment wp114), the logFC was −0.9477 and the “logFC PTK2” value is listed as −0.9477.
`Cc1ccc(NC(=O)c2cccc(C(F)(F)F)c2)cc1N1Cc2cnc(Nc3ccc(N4CCN(Cc5cn(CCCCCOc6cccc7c6C(=O)N(C6CCC(=O)NC6=O)C7=O)nn5)CC4)nc3)nc2N(C)C1=O` (stereo not shown) [DB0646, N-(3-(7-((6-(4-((1-(5-((2-(2,6-Dioxopiperidin-3-yl)-1,3-dioxoisoindolin-4-yl)oxy)pentyl)-1H-1,2,3-triazol-4-yl)methyl)piperazin-1-v)pyridin-3-yl)amino)-1-methyl-2-oxo-1,4-dihydropyrimido[4,5-d]pyrimidin-3(2H)-yl)-4-methylphenyl)-3-(trifluoromethyl)benzamide]: the “logFC RIPK1 (Q13546)” value in assay [4] (experiment wp045) is given as −0.7115; in assay [4] (experiment wp103), −0.4796; in assay [4] (experiment wp105), −0.4233; in assay [4] (experiment wp107) it was −0.5121; in assay [4] (experiment wp117) it was −0.616; in assay [4] (experiment wp152) it was −0.5495. The “logFC RIPK1 (Q13546)” value in assay [4] (experiment wp160, 4 hr) is listed as −0.3907; in assay [4] (experiment wp160, 8 hr), −0.8745. Moreover, the logFC in assay [3] (NLK (Q9UBE8), experiment wp117, direction down) is recorded as −0.501; in assay [3] (NLK (Q9UBE8), experiment wp160, 8 hr, direction down) it was −0.5569; in assay [3] (NLK Q9UBE8, experiment wp117), −0.501; in assay [3] (NLK Q9UBE8, experiment wp160, 8 hr) it was −0.5569; in assay [5] (PTK2 Q05397, experiment wp114), −0.5538; in assay [5] (PTK2 Q05397, experiment wp172), −0.8047. The “logFC PTK2” value was −0.5575 in assay [5] (setting [7]); −0.5575 in assay [5] (PTK2 Q05397, experiment wp105); −0.5538 in assay [5] (PTK2 Q05397, experiment wp114); −0.8047 in assay [5] (PTK2 Q05397, experiment wp172).
As for `Cc1ccc(NC(=O)c2cccc(C(F)(F)F)c2)cc1N1Cc2cnc(Nc3ccc(N4CCN(CCCOc5cccc6c5C(=O)N(C5CCC(=O)NC5=O)C6=O)CC4)nc3)nc2N(C)C1=O` (stereo not shown) [DB0662], in assay [6] (experiment wp168), the logFC is reported as −1.34 and the “logFC PAK4” value is on record as −1.34.
Take `Cc1ccc(C(=O)Nc2ccc(CN3CCN(CCCOCCOCCOCCNC(=O)COc4cccc5c4C(=O)N(C4CCC(=O)NC4=O)C5=O)CC3)c(C(F)(F)F)c2)cc1C#Cc1cnc2cccnn12` (stereo not shown) [SB1.G.187]: the “logFC RIPK1 (Q13546)” value in assay [4] (Experiment wp172) is −0.9666 and −0.9656; in assay [4] (experiment wp056) it was −1.288; in assay [4] (experiment wp103), −1.767; in assay [4] (experiment wp105), −1.141; in assay [4] (experiment wp107) it was −1.502.
As for `C=CCn1c(=O)c2cnc(Nc3ccc(N4CCN(CCCNc5cccc6c5C(=O)N(C5CCC(=O)NC5=O)C6=O)CC4)cc3)nc2n1-c1cccc(C(C)(C)O)n1` (stereo not shown) [ZNL.02.096], the logFC in assay [6] (experiment wp056) is listed as −0.634; in assay [6] (experiment wp081) it was −0.3989; in assay [6] (experiment wp106, 2 hr) it was −0.4238; in assay [6] (experiment wp106, 4 hr) it was −0.5768; in assay [6] (experiment wp118) it was −0.5732; in assay [2] (experiment wp118) it was −0.5337. Further, the “logFC PAK4” value in assay [6] (experiment wp056) is on record as −0.634; in assay [6] (experiment wp081), −0.3989; in assay [6] (experiment wp106, 2 hr), −0.4238; in assay [6] (experiment wp106, 4 hr), −0.5768; in assay [6] (experiment wp118) it was −0.5732.
In the case of `Nc1ncc(-c2ccc(S(=O)(=O)N(CCCNC(=O)CCOCCOCCOCCOCCOCCNc3cccc4c3C(=O)N(C3CCC(=O)NC3=O)C4=O)C3CC3)cc2)cc1-c1ccc2c(c1)CCNC2=O` (stereo not shown) [WH.10417.099], the logFC was −0.3705 in assay [6] (experiment wp103), −0.3478 in assay [6] (experiment wp105) and −0.4797 in assay [6] (experiment wp107). Further, the “logFC PAK4” value in assay [6] (experiment wp103) is given as −0.3705; in assay [6] (experiment wp105) it was −0.3478; in assay [6] (experiment wp107), −0.4797.
Take `CC(C)S(=O)(=O)c1ccccc1Nc1nc(Nc2ccc(N3CCN(CCOCCNC(=O)CNc4cccc5c4C(=O)N(C4CCC(=O)NC4=O)C5=O)CC3)cc2)ncc1Cl` (stereo not shown) [SK.3.91]: the logFC is listed as −0.8683 in assay [1] (experiment wp160, 1 hr); −0.8683 in assay [1] (experiment wp160, 1 hr, direction down); −1.684 in assay [5] (PTK2 Q05397, experiment wp114); −2.689 in assay [5] (PTK2 Q05397, experiment wp172). In addition, the “logFC PTK2” value in assay [5] (setting [7]) is on record as −2.958; in assay [5] (PTK2 Q05397, experiment wp105) it was −2.958; in assay [5] (PTK2 Q05397, experiment wp114), −1.684; in assay [5] (PTK2 Q05397, experiment wp172), −2.689.
Take `Cn1c(=O)c(-c2c(Cl)cccc2Cl)cc2cnc(Nc3ccc(OCCNC(=O)CCCCCCNC(=O)COc4cccc5c4C(=O)N(C4CCC(=O)NC4=O)C5=O)cc3)nc21` (stereo not shown) [SB1.G.192.1]: the logFC is −0.5578 in assay [3] (NLK (Q9UBE8), experiment wp071, direction down); −0.4869 in assay [3] (NLK (Q9UBE8), experiment wp081, direction down); −0.5634 in assay [3] (NLK (Q9UBE8), experiment wp131, direction down); −0.5578 in assay [3] (NLK Q9UBE8, experiment wp071); −0.4869 in assay [3] (NLK Q9UBE8, experiment wp081); −0.5634 in assay [3] (NLK Q9UBE8, experiment wp131).
